Source: article PMC3928398, “RPEL Proteins Are the Molecular Targets for CCG-1423, an Inhibitor of Rho Signaling” (PLoS ONE, 2014)

Columns and labels:
Experiment in all cases: pull-down with CCG-1423 Sepharose, immunoblot
Type in all cases: binding
[1] = target: T1, Phactr1, Flag-Phactr1 (Rattus norvegicus, UniProt P62024); settings: immobilised CCG-1423 (photo-crosslinked to Sepharose); pH 7.5, 4°C, 2 h
T1 construct: N-terminal Flag tag, pCS2+; in vitro translated in wheat germ extract, anti-Flag purified
T1 sequence (P62024 1-580): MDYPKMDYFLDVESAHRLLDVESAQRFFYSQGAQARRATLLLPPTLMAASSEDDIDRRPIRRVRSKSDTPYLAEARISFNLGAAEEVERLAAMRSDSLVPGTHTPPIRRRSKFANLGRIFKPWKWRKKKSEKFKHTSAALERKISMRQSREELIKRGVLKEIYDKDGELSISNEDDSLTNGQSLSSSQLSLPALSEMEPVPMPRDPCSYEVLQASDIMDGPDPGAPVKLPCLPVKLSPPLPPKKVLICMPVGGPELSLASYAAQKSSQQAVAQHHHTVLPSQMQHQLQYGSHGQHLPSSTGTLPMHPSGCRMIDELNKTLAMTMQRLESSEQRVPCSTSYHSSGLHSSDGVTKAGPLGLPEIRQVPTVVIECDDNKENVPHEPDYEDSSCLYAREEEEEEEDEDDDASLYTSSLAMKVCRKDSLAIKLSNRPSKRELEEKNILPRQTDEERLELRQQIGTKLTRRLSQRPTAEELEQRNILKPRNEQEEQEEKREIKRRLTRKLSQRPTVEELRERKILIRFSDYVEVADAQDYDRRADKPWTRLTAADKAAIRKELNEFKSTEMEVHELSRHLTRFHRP

[2] = target: T2, MRTF-B (MAL16/MKL2), Flag-MRTF-B (Mus musculus, UniProt P59759); settings: immobilised CCG-1423 (photo-crosslinked to Sepharose); pH 7.5, 4°C, 2 h
T2 construct: gene Mrtfb; N-terminal Flag tag, pCS2+; in vitro translated in wheat germ extract, anti-Flag purified
T2 sequence (P59759 1-1080): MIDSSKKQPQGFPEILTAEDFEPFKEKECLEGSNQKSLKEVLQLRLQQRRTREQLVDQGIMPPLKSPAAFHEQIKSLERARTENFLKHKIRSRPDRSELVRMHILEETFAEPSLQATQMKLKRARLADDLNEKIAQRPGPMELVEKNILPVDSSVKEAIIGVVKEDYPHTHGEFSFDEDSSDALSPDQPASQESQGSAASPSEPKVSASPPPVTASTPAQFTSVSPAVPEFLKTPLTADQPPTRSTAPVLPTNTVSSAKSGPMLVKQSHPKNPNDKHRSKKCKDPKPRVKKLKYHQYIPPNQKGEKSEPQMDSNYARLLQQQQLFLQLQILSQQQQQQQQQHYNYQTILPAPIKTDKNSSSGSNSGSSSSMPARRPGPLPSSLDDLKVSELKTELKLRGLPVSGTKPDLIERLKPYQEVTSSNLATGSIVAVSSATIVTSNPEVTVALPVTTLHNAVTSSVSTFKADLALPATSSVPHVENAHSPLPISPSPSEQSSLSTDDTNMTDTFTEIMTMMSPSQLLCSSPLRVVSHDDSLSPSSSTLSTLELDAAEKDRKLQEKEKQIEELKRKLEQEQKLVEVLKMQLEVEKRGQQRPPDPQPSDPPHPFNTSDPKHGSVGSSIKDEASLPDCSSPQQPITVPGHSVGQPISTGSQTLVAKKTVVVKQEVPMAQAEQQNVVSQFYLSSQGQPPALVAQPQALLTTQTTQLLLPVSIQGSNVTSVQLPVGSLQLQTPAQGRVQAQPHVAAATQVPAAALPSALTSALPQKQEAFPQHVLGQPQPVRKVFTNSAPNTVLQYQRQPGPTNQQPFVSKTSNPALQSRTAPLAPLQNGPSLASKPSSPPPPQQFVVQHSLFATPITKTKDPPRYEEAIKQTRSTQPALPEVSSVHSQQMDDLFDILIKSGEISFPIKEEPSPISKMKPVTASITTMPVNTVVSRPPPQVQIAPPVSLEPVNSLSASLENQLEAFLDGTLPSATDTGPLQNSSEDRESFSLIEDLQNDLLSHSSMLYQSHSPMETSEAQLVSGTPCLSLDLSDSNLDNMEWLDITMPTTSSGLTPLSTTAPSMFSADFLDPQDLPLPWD

[3] = target: T3, MRTF-A (MAL/MKL1), Flag-MRTF-A (Mus musculus, UniProt Q8K4J6); settings: immobilised CCG-1423 (photo-crosslinked to Sepharose) competed by 10 µM free CCG-1423; no G-actin; pH 7.5, 4°C, 2 h; site: N-terminal basic domain (NB)
T3 construct: gene Mrtfa; N-terminal Flag tag, pCS2+; in vitro translated in wheat germ extract, anti-Flag purified
T3 sequence (Q8K4J6 1-964): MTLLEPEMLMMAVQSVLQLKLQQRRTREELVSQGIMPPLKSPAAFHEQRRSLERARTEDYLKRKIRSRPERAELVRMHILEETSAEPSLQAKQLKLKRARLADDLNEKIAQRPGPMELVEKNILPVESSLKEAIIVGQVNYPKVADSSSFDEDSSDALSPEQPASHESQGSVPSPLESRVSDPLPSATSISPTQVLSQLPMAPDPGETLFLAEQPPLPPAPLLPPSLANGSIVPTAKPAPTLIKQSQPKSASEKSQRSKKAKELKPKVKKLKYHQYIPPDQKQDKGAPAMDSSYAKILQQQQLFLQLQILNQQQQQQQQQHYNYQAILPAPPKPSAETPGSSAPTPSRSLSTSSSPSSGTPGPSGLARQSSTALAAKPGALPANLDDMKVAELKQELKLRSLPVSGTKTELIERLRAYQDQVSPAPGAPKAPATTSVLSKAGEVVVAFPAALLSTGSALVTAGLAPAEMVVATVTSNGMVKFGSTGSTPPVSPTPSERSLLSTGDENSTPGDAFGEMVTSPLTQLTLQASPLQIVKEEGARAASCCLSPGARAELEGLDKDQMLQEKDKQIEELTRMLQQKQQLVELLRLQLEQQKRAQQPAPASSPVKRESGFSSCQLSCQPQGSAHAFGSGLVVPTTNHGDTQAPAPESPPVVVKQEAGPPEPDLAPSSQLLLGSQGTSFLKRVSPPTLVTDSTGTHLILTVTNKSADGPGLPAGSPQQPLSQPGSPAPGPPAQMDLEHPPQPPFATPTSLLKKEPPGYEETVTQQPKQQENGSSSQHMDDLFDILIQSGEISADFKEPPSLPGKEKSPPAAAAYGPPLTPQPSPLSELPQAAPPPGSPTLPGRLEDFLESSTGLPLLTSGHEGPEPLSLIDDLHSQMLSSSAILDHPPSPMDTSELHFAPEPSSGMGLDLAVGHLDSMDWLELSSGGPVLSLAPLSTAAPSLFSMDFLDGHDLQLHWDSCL

[4] = target: T2, MRTF-B (MAL16/MKL2), Flag-MRTF-B; settings: immobilised CCG-1423 (photo-crosslinked to Sepharose); pH 7.5, 4°C, 2 h; remark: listed apart in the source
[5] = target: T3, MRTF-A (MAL/MKL1), Flag-MRTF-A; settings: immobilised CCG-1423 (photo-crosslinked to Sepharose); pH 7.5, 4°C, 2 h
[6] = target: T4, Mycd (myocardin), Flag-Mycd (Mus musculus, UniProt Q8VIM5); settings: immobilised CCG-1423 (photo-crosslinked to Sepharose); pH 7.5, 4°C, 2 h
T4 construct: gene Myocd; N-terminal Flag tag, pCS2+; in vitro translated in wheat germ extract, anti-Flag purified
T4 sequence (Q8VIM5 1-935): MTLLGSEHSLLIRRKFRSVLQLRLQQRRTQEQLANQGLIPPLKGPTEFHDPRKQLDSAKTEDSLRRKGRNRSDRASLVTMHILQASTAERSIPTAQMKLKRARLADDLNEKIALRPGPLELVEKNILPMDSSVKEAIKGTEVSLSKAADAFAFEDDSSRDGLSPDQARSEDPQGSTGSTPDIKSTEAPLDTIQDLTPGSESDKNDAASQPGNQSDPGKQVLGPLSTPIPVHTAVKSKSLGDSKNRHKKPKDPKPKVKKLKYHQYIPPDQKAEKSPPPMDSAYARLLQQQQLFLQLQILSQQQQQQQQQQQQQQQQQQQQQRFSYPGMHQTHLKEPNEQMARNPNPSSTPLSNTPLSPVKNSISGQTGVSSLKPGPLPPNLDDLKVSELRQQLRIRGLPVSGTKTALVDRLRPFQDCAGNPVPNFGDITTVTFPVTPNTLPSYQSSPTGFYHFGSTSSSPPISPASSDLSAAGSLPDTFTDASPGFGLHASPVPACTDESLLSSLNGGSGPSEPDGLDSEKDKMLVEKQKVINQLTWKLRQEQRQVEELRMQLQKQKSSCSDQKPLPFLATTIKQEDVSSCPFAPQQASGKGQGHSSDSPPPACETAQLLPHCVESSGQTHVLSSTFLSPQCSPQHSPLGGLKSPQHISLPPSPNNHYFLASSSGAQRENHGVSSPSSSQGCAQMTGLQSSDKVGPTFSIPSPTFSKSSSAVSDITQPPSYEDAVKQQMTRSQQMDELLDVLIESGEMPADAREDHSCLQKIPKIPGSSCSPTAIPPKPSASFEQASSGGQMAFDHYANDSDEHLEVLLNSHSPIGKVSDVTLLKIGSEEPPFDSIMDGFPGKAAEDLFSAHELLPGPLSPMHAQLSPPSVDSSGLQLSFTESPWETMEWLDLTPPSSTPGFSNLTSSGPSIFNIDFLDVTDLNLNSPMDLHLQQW

% of binding left with 10 μM free CCG-1423 [3]: 20.6±6.3% | % of wild-type binding [5]: 11.2±8.5%
SMILES: CC(ONC(=O)c1cc(C(F)(F)F)cc(C(F)(F)F)c1)C(=O)Nc1ccc(Cl)cc1 (stereo not drawn) [CCG-1423]
pull-down with CCG-1423 Sepharose, immunoblot [1]: MRTF-B, Mycd, and Phactr1 bound to CCG-1423 Sepharose | pull-down with CCG-1423 Sepharose, immunoblot [2]: MRTF-B NBmut) to CCG-1423 Sepharose severely reduced | pull-down with CCG-1423 Sepharose, immunoblot [4]: MRTF-B, Mycd, and Phactr1 bound to CCG-1423 Sepharose | pull-down with CCG-1423 Sepharose, immunoblot [6]: MRTF-B, Mycd, and Phactr1 bound to CCG-1423 Sepharose
